Data as given in patent US20230091047A1 (priority 2019, published 2023).

Key:
[1] = test system: HBV (HepG2.117 cell line, inducibly HBV producing); experiment: Anti-HBV activity: intracellular HBV DNA by real-time PCR in HepG2.117 cells after 3 days of treatment; type: cell-based, hepatitis B virus; settings: Hepatitis B virus, HepG2.117, 72 h, HepG2.117 cells, 3 days of treatment, intracellular HBV DNA by real-time PCR; mean value; read-out: EC50 (μM, mean value)
Summary of the method: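 First, HBV replication is induced in HepG2.117 cells by doxycycline absence. Next, serially diluted compound is added for 3 days. Finally, intracellular HBV DNA is quantified by HBV-specific real-time PCR.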

[2] = in vitro; type: cell-based; settings: human, HepG2 or HepG2.117 cells, 3-days incubation (unmarked values), ATPlite; mean value
Summary of the method: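 Luminescent ATP quantitation served as the viability endpoint following a 3- or 4-day incubation with test compounds.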

| SMILES | EC50 [1] [µM] | CC50 at 3 days [2] [µM] |
| --- | --- | --- |
| COc1ccc(CNc2nc3c(c(=O)n2-c2ccc4ncoc4c2)CCN(C(=O)c2ccc(Cl)c(Cl)c2)C3)cc1 [Compound C131, 3-(1,3-benzoxazol-6-yl)-7-(3,4-dichlorobenzoyl)-2-{[(4-methoxyphenyl)methyl]amino}-5,6,7,8-tetrahydropyrido[3,4-d]pyrimidin-4(3H)-one] | 0.53 | > 50 |
| CC(C)Nc1nc2c(c(=O)n1-c1ccc(S(C)(=O)=O)cc1)CCN(C(=O)c1ccc3occc3c1)C2 [Compound C132, 7-(1-benzofuran-5-carbonyl)-3-[4-(methanesulfonyl)phenyl]-2-[(propan-2-yl)amino]-5,6,7,8-tetrahydropyrido[3,4-d]pyrimidin-4(3H)-one] | 0.7 | > 50 |
| CC(C)Nc1nc2c(c(=O)n1-c1ccc(S(C)(=O)=O)cc1)CCN(C(=O)c1[nH]c3ccccc3c1Cl)C2 [Compound C133, 7-(3-chloro-1H-indole-2-carbonyl)-3-[4-(methanesulfonyl)phenyl]-2-[(propan-2-yl)amino]-5,6,7,8-tetrahydropyrido[3,4-d]pyrimidin-4(3H)-one] | 1.94 | 28.3 |
| CC(C)Nc1nc2c(c(=O)n1-c1ccnnc1)CCN(C(=O)c1ccc(Cl)c(Cl)c1)C2 [Compound C134, 7-(3,4-dichlorobenzoyl)-2-[(propan-2-yl)amino]-3-(pyridazin-4-yl)-5,6,7,8-tetrahydropyrido[3,4-d]pyrimidin-4(3H)-one] | 4.39 | > 50 |
| COc1ccc(CNc2nc3c(c(=O)n2-c2ccnnc2)CCN(C(=O)c2ccc(Cl)c(Cl)c2)C3)cc1 [Compound C135, 7-(3,4-dichlorobenzoyl)-2-{[(4-methoxyphenyl)methyl]amino}-3-(pyridazin-4-yl)-5,6,7,8-tetrahydropyrido[3,4-d]pyrimidin-4(3H)-one] | 1.13 | 23.3 |
| CC(C)Nc1nc2c(c(=O)n1-c1ccc(S(C)(=O)=O)cc1)CCN(C(=O)c1cc3cc(F)ccc3[nH]1)C2 [Compound C136, 7-(5-fluoro-1H-indole-2-carbonyl)-3-[4-(methanesulfonyl)phenyl]-2-[(propan-2-yl)amino]-5,6,7,8-tetrahydropyrido[3,4-d]pyrimidin-4(3H)-one] | 0.24 | > 50 |
| CC(C)Nc1nc2c(c(=O)n1-c1ccc(S(C)(=O)=O)cc1)CCN(C(=O)c1cc3ccc(F)cc3[nH]1)C2 [Compound C137, 7-(6-fluoro-1H-indole-2-carbonyl)-3-[4-(methanesulfonyl)phenyl]-2-[(propan-2-yl)amino]-5,6,7,8-tetrahydropyrido[3,4-d]pyrimidin-4(3H)-one] | 0.3 | > 50 |
| CC(C)Nc1nc2c(c(=O)n1-c1ccc(S(C)(=O)=O)cc1)CCN(C(=O)c1ccn3nccc3c1)C2 [Compound C138, 3-[4-(methanesulfonyl)phenyl]-2-[(propan-2-yl)amino]-7-(pyrazolo[1,5-a]pyridine-5-carbonyl)-5,6,7,8-tetrahydropyrido[3,4-d]pyrimidin-4(3H)-one] | 5.98 | > 50 |
| CC(C)Nc1nc2c(c(=O)n1-c1ccc(S(C)(=O)=O)cc1)CCN(C(=O)c1ccc3ccoc3c1)C2 [Compound C139, 7-(1-benzofuran-6-carbonyl)-3-[4-(methanesulfonyl)phenyl]-2-[(propan-2-yl)amino]-5,6,7,8-tetrahydropyrido[3,4-d]pyrimidin-4(3H)-one] | 11.2 | > 50 |
| COc1ccc(CNc2nc3c(c(=O)n2-c2ccc(S(C)(=O)=O)cc2)C[C@H](C)N(C(=O)c2ccc(Cl)c(Cl)c2)C3)cc1 [Compound C140, (6S)-7-(3,4-dichlorobenzoyl)-3-[4-(methanesulfonyl)phenyl]-2-{[(4-methoxyphenyl)methyl]amino}-6-methyl-5,6,7,8-tetrahydropyrido[3,4-d]pyrimidin-4(3H)-one] | 1.88 | > 50 |
| COc1ccc(CNc2nc3c(c(=O)n2-c2ccc(-n4cccn4)cc2)CCN(C(=O)c2ccc(Cl)c(Cl)c2)C3)cc1 [Compound C143, 7-(3,4-dichlorobenzoyl)-2-{[(4-methoxyphenyl)methyl]amino}-3-[4-(1H-pyrazol-1-yl)phenyl]-5,6,7,8-tetrahydropyrido[3,4-d]pyrimidin-4(3H)-one] | 1.46 | > 50 |
| CC(C)Nc1nc2c(c(=O)n1-c1ccc(-n3cccn3)cc1)CCN(C(=O)c1ccc(Cl)c(Cl)c1)C2 [Compound C144, 7-(3,4-dichlorobenzoyl)-2-[(propan-2-yl)amino]-3-[4-(1H-pyrazol-1-yl)phenyl]-5,6,7,8-tetrahydropyrido[3,4-d]pyrimidin-4(3H)-one] | 0.6 | > 50 |
| COc1ccc(CNc2nc3c(c(=O)n2-c2ccc(S(C)(=O)=O)cc2)C[C@@H](C)N(C(=O)c2ccc(Cl)c(Cl)c2)C3)cc1 [Compound C145, (6R)-7-(3,4-dichlorobenzoyl)-3-[4-(methanesulfonyl)phenyl]-2-{[(4-methoxyphenyl)methyl]amino}-6-methyl-5,6,7,8-tetrahydropyrido[3,4-d]pyrimidin-4(3H)-one] | 0.31 | > 42 |
| C[C@@H]1Cc2c(nc(NCc3cscn3)n(-c3ccc(S(C)(=O)=O)cc3)c2=O)CN1C(=O)c1ccc(Cl)c(Cl)c1 [Compound C146, (6R)-7-(3,4-dichlorobenzoyl)-3-[4-(methanesulfonyl)phenyl]-6-methyl-2-{[(1,3-thiazol-4-yl)methyl]amino}-5,6,7,8-tetrahydropyrido[3,4-d]pyrimidin-4(3H)-one] | 1.95 | > 50 |
| Cc1c(C(=O)N2CCc3c(nc(NC(C)C)n(-c4ccc(S(C)(=O)=O)cc4)c3=O)C2)[nH]c2ccccc12 [Compound C147, 3-[4-(methanesulfonyl)phenyl]-7-(3-methyl-1H-indole-2-carbonyl)-2-[(propan-2-yl)amino]-5,6,7,8-tetrahydropyrido[3,4-d]pyrimidin-4(3H)-one] | 1.88 | > 50 |
| COc1ccc(CNc2nc3c(c(=O)n2-c2cccc4ocnc24)CCN(C(=O)c2ccc(Cl)c(Cl)c2)C3)cc1 [Compound C148, 3-(1,3-benzoxazol-4-yl)-7-(3,4-dichlorobenzoyl)-2-{[(4-methoxyphenyl)methyl]amino}-5,6,7,8-tetrahydropyrido[3,4-d]pyrimidin-4(3H)-one] | 1.48 | > 38 |
| COc1ccc(CNc2nc3c(c(=O)n2-c2ccc(C(N)=O)cc2)CCN(C(=O)c2ccc(Cl)c(Cl)c2)C3)cc1 [Compound C149, 4-[7-(3,4-dichlorobenzoyl)-2-{[(4-methoxyphenyl)methyl]amino}-4-oxo-5,6,7,8-tetrahydropyrido[3,4-d]pyrimidin-3(4H)-yl]benzamide] | 1.5 | 23.2 |
| C[C@@H]1Cc2c(nc(NCc3ccncn3)n(-c3ccc(S(C)(=O)=O)cc3)c2=O)CN1C(=O)c1ccc(Cl)c(Cl)c1 [Compound C150, (6R)-7-(3,4-dichlorobenzoyl)-3-[4-(methanesulfonyl)phenyl]-6-methyl-2-{[(pyrimidin-4-yl)methyl]amino}-5,6,7,8-tetrahydropyrido[3,4-d]pyrimidin-4(3H)-one] | 5.44 | > 50 |
| CC(C)Nc1nc2c(c(=O)n1-c1ccc(S(C)(=O)=O)cc1)CCN(C(=O)c1ccc3ncoc3c1)C2 [Compound C151, 7-(1,3-benzoxazole-6-carbonyl)-3-[4-(methanesulfonyl)phenyl]-2-[(propan-2-yl)amino]-5,6,7,8-tetrahydropyrido[3,4-d]pyrimidin-4(3H)-one] | 10.7 | > 50 |
| CC(C)Nc1nc2c(c(=O)n1-c1ccc(S(C)(=O)=O)cc1)CCN(C(=O)c1cc3ccccc3o1)C2 [Compound C152, 7-(1-benzofuran-2-carbonyl)-3-[4-(methanesulfonyl)phenyl]-2-[(propan-2-yl)amino]-5,6,7,8-tetrahydropyrido[3,4-d]pyrimidin-4(3H)-one] | 30.8 | > 50 |
| CCOC(=O)c1ccc(-n2c(NC(C)C)nc3c(c2=O)C[C@@H](C)N(C(=O)c2ccc(Cl)c(Cl)c2)C3)cc1 [Compound C153, ethyl 4-[(6R)-7-(3,4-dichlorobenzoyl)-6-methyl-4-oxo-2-[(propan-2-yl)amino]-5,6,7,8-tetrahydropyrido[3,4-d]pyrimidin-3(4H)-yl]benzoate] | 0.75 | > 50 |
| CC(C)Nc1nc2c(c(=O)n1-c1ccc(S(C)(=O)=O)cc1)C(C)CN(C(=O)c1ccc(Cl)c(Cl)c1)C2 (stereo not drawn) [Compound C154, 7-(3,4-dichlorobenzoyl)-3-[4-(methanesulfonyl)phenyl]-5-methyl-2-[(propan-2-yl)amino]-5,6,7,8-tetrahydropyrido[3,4-d]pyrimidin-4(3H)-one] | 0.52 | > 50 |
| CC(C)Nc1nc2c(c(=O)n1-c1ccc(S(C)(=O)=O)cc1)CCN(C(=O)c1ccc3c(c1)CCO3)C2 [Compound C155, 7-(2,3-dihydro-1-benzofuran-5-carbonyl)-3-[4-(methanesulfonyl)phenyl]-2-[(propan-2-yl)amino]-5,6,7,8-tetrahydropyrido[3,4-d]pyrimidin-4(3H)-one] | 5.29 | > 50 |
| CNC(=O)c1ccc(-n2c(NC(C)C)nc3c(c2=O)C[C@@H](C)N(C(=O)c2ccc(Cl)c(Cl)c2)C3)cc1 [Compound C157, 4-[(6R)-7-(3,4-dichlorobenzoyl)-6-methyl-4-oxo-2-[(propan-2-yl)amino]-5,6,7,8-tetrahydropyrido[3,4-d]pyrimidin-3(4H)-yl]-N-methylbenzamide] | 0.04 | > 50 |
